Source: patent publication US10392368B2, “Pyrazolo and triazolo bicyclic compounds as JAK kinase inhibitors” (THERAVANCE BIOPHARMA R&D IP, LLC, priority 2017, dated 2019)

What was measured:
JAK1 = target: T1, JAK1 (Homo sapiens, UniProt P23458); experiment: Biochemical JAK1 kinase assay (LanthaScreen)
T1 construct: GST; purchased Life Technologies
Outline: (§1)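 TR-FRET read-out: terbium anti-pSTAT1 (pTyr701) antibody, 2 nM, with 10 mM EDTA quench, emission ratio 520/495 nm. GST-JAK phosphorylates GFP-STAT1 peptide for 1 h at ambient temperature after 1 h compound pre-incubation. pIC50 from dose-response converted to pKi by Cheng-Prusoff.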

JAK2 = target: T2, JAK2 (Homo sapiens, UniProt O60674); experiment: Biochemical JAK2 kinase assay (LanthaScreen)
T2 construct: GST; purchased Life Technologies
T2 sequence (O60674 whole entry): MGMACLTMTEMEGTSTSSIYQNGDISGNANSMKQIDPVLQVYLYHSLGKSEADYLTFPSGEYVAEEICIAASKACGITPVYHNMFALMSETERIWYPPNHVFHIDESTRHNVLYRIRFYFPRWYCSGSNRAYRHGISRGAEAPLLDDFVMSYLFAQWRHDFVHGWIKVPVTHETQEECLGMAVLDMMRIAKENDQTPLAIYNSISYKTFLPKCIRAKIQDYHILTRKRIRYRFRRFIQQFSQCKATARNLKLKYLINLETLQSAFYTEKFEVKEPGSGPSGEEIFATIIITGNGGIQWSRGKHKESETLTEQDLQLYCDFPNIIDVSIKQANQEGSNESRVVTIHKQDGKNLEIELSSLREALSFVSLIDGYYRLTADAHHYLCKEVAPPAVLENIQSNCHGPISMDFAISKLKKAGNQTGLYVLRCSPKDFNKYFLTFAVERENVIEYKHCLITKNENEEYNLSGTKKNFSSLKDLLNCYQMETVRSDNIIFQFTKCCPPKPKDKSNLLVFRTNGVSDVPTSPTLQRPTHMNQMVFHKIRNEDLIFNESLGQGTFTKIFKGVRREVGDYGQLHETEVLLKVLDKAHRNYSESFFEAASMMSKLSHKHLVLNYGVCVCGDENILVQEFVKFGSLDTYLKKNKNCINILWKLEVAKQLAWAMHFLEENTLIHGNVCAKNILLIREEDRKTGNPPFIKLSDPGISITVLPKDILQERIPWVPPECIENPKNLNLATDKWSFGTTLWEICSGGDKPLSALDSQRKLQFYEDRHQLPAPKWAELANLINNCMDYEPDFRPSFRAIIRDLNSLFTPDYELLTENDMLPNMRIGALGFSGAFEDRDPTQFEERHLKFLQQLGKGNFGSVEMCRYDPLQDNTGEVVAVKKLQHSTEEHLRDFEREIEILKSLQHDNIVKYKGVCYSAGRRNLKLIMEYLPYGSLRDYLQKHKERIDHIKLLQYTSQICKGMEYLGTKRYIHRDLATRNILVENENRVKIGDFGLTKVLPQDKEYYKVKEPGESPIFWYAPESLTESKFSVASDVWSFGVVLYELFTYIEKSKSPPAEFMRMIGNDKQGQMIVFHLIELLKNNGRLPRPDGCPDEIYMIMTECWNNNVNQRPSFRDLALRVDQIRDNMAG
Outline: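 pKi values derive from pIC50 via Cheng-Prusoff, with IC50 from a 4-parameter fit of percent-inhibition TR-FRET data using Tb-anti-pSTAT1 (pTyr701) detection. Compound, GST-JAK2 and GFP-STAT1 substrate were pre-incubated 1 h, then ATP started a 1 h ambient reaction (HEPES pH 7.5, 10 mM MgCl2, 1% DMSO).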

Tyk2 = target: T3, Tyk2 (Homo sapiens, UniProt P29597); experiment: Biochemical Tyk2 kinase assay (LanthaScreen)
T3 construct: GST; purchased Life Technologies
T3 sequence (P29597 whole entry): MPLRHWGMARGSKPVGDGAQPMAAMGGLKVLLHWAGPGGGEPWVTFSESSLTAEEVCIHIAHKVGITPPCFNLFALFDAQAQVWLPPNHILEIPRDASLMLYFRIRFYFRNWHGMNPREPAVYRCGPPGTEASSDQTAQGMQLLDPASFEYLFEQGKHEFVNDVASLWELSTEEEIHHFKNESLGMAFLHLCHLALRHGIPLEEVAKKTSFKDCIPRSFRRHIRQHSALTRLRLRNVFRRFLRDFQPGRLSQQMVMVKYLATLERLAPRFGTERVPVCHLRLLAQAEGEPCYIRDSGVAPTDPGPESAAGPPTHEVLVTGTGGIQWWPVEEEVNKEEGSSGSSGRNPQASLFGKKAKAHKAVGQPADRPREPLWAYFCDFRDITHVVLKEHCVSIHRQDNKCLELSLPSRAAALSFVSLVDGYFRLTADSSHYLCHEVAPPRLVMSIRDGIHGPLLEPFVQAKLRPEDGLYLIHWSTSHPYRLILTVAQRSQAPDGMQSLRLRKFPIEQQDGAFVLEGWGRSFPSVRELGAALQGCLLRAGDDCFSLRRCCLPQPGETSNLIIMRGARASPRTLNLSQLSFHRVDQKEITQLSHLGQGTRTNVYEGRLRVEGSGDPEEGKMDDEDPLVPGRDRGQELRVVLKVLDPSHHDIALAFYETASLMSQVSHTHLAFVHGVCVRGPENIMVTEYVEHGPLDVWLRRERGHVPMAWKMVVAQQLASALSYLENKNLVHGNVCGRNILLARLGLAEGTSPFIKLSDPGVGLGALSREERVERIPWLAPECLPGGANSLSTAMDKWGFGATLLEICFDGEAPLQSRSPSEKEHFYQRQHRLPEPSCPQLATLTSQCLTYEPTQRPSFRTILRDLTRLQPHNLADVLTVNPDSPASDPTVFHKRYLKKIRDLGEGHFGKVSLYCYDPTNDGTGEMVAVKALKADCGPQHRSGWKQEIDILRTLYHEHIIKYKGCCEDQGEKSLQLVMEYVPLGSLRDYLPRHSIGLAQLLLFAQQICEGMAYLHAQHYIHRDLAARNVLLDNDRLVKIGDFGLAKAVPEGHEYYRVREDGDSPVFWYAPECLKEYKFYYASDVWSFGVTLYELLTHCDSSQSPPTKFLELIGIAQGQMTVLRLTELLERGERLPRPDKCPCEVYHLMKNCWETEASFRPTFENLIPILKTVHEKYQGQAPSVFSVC
Outline: as §1

[1] = test system: IL-2 stimulated pSTAT5 in Tall-1 T cells; experiment: Cellular JAK3 potency assay: inhibition of IL-2 stimulated pSTAT5 in Tall-1 T cells; format: cell-based, human
Outline: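 Tall-1 human T cells were preincubated with compound for 1 h at 37° C, then stimulated with IL-2 (300 ng/ml final) for 30 min. STAT5 phosphorylation in lysates was read by AlphaLisa bead emission, and IC50 from inhibition curves is given as pIC50 (mean±SD).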

JAK3 = target: T4, JAK3 (Homo sapiens, UniProt P52333); experiment: Biochemical JAK3 kinase assay (LanthaScreen); design: GST; purchased Life Technologies
T4 sequence (P52333 1-1124): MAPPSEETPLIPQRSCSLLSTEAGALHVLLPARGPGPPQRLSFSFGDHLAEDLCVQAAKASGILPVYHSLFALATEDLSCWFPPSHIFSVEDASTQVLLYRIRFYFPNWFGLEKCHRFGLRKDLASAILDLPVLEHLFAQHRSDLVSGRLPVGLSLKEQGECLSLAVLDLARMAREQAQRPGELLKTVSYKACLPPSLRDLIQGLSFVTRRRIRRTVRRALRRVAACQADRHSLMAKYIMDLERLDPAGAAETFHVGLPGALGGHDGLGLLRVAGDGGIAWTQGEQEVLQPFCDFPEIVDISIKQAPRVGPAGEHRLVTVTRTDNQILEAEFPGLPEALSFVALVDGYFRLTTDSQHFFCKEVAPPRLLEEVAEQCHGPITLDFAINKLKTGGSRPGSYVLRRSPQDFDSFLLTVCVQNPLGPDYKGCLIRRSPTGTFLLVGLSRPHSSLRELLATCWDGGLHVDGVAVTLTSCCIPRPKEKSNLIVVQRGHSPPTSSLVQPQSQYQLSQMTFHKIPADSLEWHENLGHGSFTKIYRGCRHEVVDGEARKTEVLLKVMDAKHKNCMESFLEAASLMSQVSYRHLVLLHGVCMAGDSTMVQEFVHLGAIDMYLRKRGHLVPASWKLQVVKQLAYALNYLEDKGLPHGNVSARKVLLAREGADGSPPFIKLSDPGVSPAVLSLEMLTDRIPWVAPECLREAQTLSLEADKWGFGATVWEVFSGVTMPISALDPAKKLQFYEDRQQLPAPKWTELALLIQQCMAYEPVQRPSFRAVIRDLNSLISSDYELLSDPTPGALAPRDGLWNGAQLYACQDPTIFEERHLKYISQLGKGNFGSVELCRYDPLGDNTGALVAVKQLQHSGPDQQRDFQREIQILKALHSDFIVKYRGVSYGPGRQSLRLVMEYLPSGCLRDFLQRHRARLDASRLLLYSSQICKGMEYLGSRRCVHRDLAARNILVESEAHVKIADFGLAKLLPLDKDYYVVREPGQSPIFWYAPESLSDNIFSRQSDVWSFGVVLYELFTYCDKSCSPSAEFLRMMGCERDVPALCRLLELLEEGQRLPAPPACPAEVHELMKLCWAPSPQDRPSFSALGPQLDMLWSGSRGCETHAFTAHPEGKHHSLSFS
Outline: as §1

[2] = IL-2 stimulated pSTAT5 in Tall-1 T cells
[3] = selectivity: difference of pKi JAK3 and pKi JAK1
[4] = IL-2 stimulated pSTAT5, Tall-1 T cells
[5] = selectivity JAK3 over JAK1, difference of pKi

T1 sequence (P23458 whole entry): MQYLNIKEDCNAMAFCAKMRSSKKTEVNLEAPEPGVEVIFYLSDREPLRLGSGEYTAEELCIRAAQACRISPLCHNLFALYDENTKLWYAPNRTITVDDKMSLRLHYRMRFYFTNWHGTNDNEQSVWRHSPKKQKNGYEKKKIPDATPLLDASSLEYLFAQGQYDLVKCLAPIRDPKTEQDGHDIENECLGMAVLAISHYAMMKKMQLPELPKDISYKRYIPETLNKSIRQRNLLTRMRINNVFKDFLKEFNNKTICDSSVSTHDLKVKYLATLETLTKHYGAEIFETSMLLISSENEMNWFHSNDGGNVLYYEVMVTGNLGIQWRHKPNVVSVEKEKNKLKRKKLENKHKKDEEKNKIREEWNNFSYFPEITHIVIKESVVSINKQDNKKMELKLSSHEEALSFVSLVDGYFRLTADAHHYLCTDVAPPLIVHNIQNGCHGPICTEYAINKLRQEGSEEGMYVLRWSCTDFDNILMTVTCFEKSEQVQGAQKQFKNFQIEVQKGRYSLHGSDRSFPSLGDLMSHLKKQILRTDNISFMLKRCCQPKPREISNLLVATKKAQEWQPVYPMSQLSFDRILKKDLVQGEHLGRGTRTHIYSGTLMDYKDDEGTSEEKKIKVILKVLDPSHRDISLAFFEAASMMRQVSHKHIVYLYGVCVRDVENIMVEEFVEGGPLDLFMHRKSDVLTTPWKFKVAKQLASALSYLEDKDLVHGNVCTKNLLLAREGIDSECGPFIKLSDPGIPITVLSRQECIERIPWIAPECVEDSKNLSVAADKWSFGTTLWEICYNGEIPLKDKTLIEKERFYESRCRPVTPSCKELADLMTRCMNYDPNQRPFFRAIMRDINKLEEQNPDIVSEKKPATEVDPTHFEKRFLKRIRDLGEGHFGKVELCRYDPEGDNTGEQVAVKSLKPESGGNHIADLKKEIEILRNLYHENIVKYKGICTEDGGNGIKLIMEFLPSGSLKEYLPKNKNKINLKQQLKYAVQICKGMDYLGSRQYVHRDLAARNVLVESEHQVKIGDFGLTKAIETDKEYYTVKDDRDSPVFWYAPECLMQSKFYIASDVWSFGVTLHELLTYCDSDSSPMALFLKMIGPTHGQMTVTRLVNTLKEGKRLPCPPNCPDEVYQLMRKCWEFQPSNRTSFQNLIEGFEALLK

Row | SMILES | JAK 1 (pKi) (JAK1) | JAK 2 (pKi) (JAK2) | Tyk 2 (pKi) (Tyk2) | Tall-1 (pIC50) [1, 2] | JAK 3 (pKi) (JAK3) | JAK3 (pKi)-JAK1 (pKi) (JAK3; [3]) | Tall-1 (pIC50) [1, 4] | JAK3 (pKi)-JAK1 (pKi) (JAK3; [5])
1 | C=CC(=O)N1CC(Oc2cc(-c3ccc(O)cc3)cc3[nH]ncc23)C1 [Compound 5-2] | E (a pKi value of 7 or below (Ki of 100 nM or above)) | E (a pKi value of 7 or below (Ki of 100 nM or above)) | E (a pKi value of 7 or below (Ki of 100 nM or above)) | B (a pIC50 value between 6.7 (included) and 7.5 (IC50 between 200 nM and 32 nM)) | B (a pKi value between 9 and 10 (Ki between 1 nM and 0.1 nM)) | A (a value of 3 or above) |  | 
2 | CN(C)C/C=C/C(=O)N1CC(Oc2cc(-c3ccc(O)c(Cl)c3)cc3[nH]ncc23)C1 [Compound 5-3] | E (a pKi value of 7 or below (Ki of 100 nM or above)) | E (a pKi value of 7 or below (Ki of 100 nM or above)) | E (a pKi value of 7 or below (Ki of 100 nM or above)) | A (a pIC50 value≥7.5 (IC50≤32 nM)) | A (a pKi value≥10 (Ki≤0.1 nM)) | A (a value of 3 or above) |  | 
3 | C=CC(=O)N1CC(Oc2cc(-c3ccc(O)c(Cl)c3)cc3[nH]ncc23)C1 [Compound 5-4] | E (a pKi value of 7 or below (Ki of 100 nM or above)) | E (a pKi value of 7 or below (Ki of 100 nM or above)) | E (a pKi value of 7 or below (Ki of 100 nM or above)) | A (a pIC50 value≥7.5 (IC50≤32 nM)) | B (a pKi value between 9 and 10 (Ki between 1 nM and 0.1 nM)) | A (a value of 3 or above) |  | 
4 | CN(C)C/C=C/C(=O)N1CC(Oc2cc(-c3ccc(O)c(F)c3)cc3[nH]ncc23)C1 [Compound 5-5] | E (a pKi value of 7 or below (Ki of 100 nM or above)) | D (a pKi value between 7 and 8 (Ki between 100 nM and 10 nM)) | E (a pKi value of 7 or below (Ki of 100 nM or above)) | B (a pIC50 value between 6.7 (included) and 7.5 (IC50 between 200 nM and 32 nM)) | A (a pKi value≥10 (Ki≤0.1 nM)) | A (a value of 3 or above) |  | 
5 | C=CC(=O)N1CC(Oc2cc(-c3ccc(O)c(F)c3)cc3[nH]ncc23)C1 [Compound 5-6] | E (a pKi value of 7 or below (Ki of 100 nM or above)) | E (a pKi value of 7 or below (Ki of 100 nM or above)) | E (a pKi value of 7 or below (Ki of 100 nM or above)) | B (a pIC50 value between 6.7 (included) and 7.5 (IC50 between 200 nM and 32 nM)) | B (a pKi value between 9 and 10 (Ki between 1 nM and 0.1 nM)) | A (a value of 3 or above) |  | 
6 | C=CC(=O)N1CC(Nc2cc(-c3ccc(O)cc3)cc3[nH]ncc23)C1 [Compound 5-7] | E (a pKi value of 7 or below (Ki of 100 nM or above)) | D (a pKi value between 7 and 8 (Ki between 100 nM and 10 nM)) | E (a pKi value of 7 or below (Ki of 100 nM or above)) | B (a pIC50 value between 6.7 (included) and 7.5 (IC50 between 200 nM and 32 nM)) | A (a pKi value≥10 (Ki≤0.1 nM)) | A (a value of 3 or above) |  | 
7 | C=CC(=O)N1CC(C)(Oc2cc(-c3ccc(O)cc3)cc3[nH]ncc23)C1 [Compound 5-12] | E (a pKi value of 7 or below (Ki of 100 nM or above)) | E (a pKi value of 7 or below (Ki of 100 nM or above)) | E (a pKi value of 7 or below (Ki of 100 nM or above)) | B (a pIC50 value between 6.7 (included) and 7.5 (IC50 between 200 nM and 32 nM)) | B (a pKi value between 9 and 10 (Ki between 1 nM and 0.1 nM)) | A (a value of 3 or above) |  | 
8 | C=CC(=O)N1CC(Oc2cc(-c3ccc(O)cc3)cc3[nH]ncc23)(C(F)F)C1 [Compound 5-14] | E (a pKi value of 7 or below (Ki of 100 nM or above)) | E (a pKi value of 7 or below (Ki of 100 nM or above)) | E (a pKi value of 7 or below (Ki of 100 nM or above)) | A (a pIC50 value≥7.5 (IC50≤32 nM)) | A (a pKi value≥10 (Ki≤0.1 nM)) | A (a value of 3 or above) |  | 
9 | CN(C)C/C=C/C(=O)N1CC(Oc2cc(-c3ccc(O)c(Cl)c3)cc3[nH]ncc23)(C(F)F)C1 [Compound 5-16] | E (a pKi value of 7 or below (Ki of 100 nM or above)) | 6 | E (a pKi value of 7 or below (Ki of 100 nM or above)) | A (a pIC50 value≥7.5 (IC50≤32 nM)) | A (a pKi value≥10 (Ki≤0.1 nM)) | A (a value of 3 or above) |  | 
10 | CN(C)C/C=C/C(=O)N1CC(Oc2cc(-c3ccc(O)c(F)c3)cc3[nH]ncc23)(C(F)F)C1 [Compound 5-17] | E (a pKi value of 7 or below (Ki of 100 nM or above)) | E (a pKi value of 7 or below (Ki of 100 nM or above)) | E (a pKi value of 7 or below (Ki of 100 nM or above)) | A (a pIC50 value≥7.5 (IC50≤32 nM)) | B (a pKi value between 9 and 10 (Ki between 1 nM and 0.1 nM)) | A (a value of 3 or above) |  | 
11 | CN(C)C/C=C/C(=O)N1CC(C)(Oc2cc(-c3ccc(O)c(Cl)c3)cc3[nH]ncc23)C1 [Compound 5-18] | E (a pKi value of 7 or below (Ki of 100 nM or above)) | E (a pKi value of 7 or below (Ki of 100 nM or above)) | E (a pKi value of 7 or below (Ki of 100 nM or above)) |  | A (a pKi value≥10 (Ki≤0.1 nM)) |  | A (a pIC50 value≥7.5 (IC50≤32 nM)) | A (a value of 3 or above)
12 | CN(C)C/C=C/C(=O)N1CC(C)(Oc2cc(-c3ccc(O)c(F)c3)cc3[nH]ncc23)C1 [Compound 5-19] | E (a pKi value of 7 or below (Ki of 100 nM or above)) | E (a pKi value of 7 or below (Ki of 100 nM or above)) | E (a pKi value of 7 or below (Ki of 100 nM or above)) |  | B (a pKi value between 9 and 10 (Ki between 1 nM and 0.1 nM)) |  | B (a pIC50 value between 6.7 (included) and 7.5 (IC50 between 200 nM and 32 nM)) | A (a value of 3 or above)
13 | C=CC(=O)N1CC(Oc2cc(-c3ccc(O)c(Cl)c3)cc3[nH]ncc23)(C(F)F)C1 [Compound 5-21] | E (a pKi value of 7 or below (Ki of 100 nM or above)) | E (a pKi value of 7 or below (Ki of 100 nM or above)) | E (a pKi value of 7 or below (Ki of 100 nM or above)) |  | B (a pKi value between 9 and 10 (Ki between 1 nM and 0.1 nM)) |  | A (a pIC50 value≥7.5 (IC50≤32 nM)) | A (a value of 3 or above)
14 | C=CC(=O)N1CC(Oc2cc(-c3ccc(O)c(F)c3)cc3[nH]ncc23)(C(F)F)C1 [Compound 5-22] | E (a pKi value of 7 or below (Ki of 100 nM or above)) | E (a pKi value of 7 or below (Ki of 100 nM or above)) | E (a pKi value of 7 or below (Ki of 100 nM or above)) |  | B (a pKi value between 9 and 10 (Ki between 1 nM and 0.1 nM)) |  | B (a pIC50 value between 6.7 (included) and 7.5 (IC50 between 200 nM and 32 nM)) | A (a value of 3 or above)
